Literature values as cited in patent US6995149B1, “Contraceptive process and kit for female mammals, comprising a combination of gestagen and oestrogen” (Schering AG, priority 1995, dated 2006).

Assays:
women = conditions: daily dose of 70 to 80 μg, pure gestagen preparation; in almost all women
[1] = very small doses; ovulation is not always inhibited

C#C[C@]1(O)CC[C@H]2[C@@H]3CCC4=CCCC[C@@H]4[C@H]3C(=C)C[C@@]21CC [desogestrel]
inhibition of ovulation (women): In almost all women, these dosages cause inhibition of ovulation

CC(=O)O[C@]1(C(C)=O)CC[C@H]2[C@@H]3C=C(Cl)C4=CC(=O)CC[C@]4(C)[C@H]3CC[C@@]21C [chloromadinone acetate]
contraceptive protection [1]: afforded contraceptive protection

C#C[C@]1(O)CC[C@H]2[C@@H]3CCC4=CC(=O)CC[C@@H]4[C@H]3C(=C)C[C@@]21CC [3-ketodesogestrel]
inhibition of ovulation (women): In almost all women, these dosages cause inhibition of ovulation
